In patent US20070032464A1, “Methods of treating cancers” (priority 2004, published 2007):

Experiments:
liver X receptor alpha = molecular target: T1, liver X receptor alpha (Homo sapiens, UniProt Q13133); test: gene transactivation (luciferase reporter) assay in human embryonic kidney 293 cells, liver X receptor alpha; format: cell-based; settings: 1 to 10 μM
T1 sequence (Q13133 1-447): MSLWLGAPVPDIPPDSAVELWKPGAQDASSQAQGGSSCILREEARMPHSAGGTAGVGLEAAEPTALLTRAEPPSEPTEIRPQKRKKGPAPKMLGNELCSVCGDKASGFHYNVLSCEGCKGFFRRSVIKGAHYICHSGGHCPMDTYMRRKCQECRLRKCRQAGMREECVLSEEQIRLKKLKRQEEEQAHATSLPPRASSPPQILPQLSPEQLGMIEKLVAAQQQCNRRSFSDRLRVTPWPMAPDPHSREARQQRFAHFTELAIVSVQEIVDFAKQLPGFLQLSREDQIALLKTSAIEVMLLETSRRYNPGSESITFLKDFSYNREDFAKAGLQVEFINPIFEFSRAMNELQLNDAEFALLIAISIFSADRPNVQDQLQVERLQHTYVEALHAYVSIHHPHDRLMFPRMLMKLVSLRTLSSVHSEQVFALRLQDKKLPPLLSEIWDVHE
T1 sequence (P19793 1-462 partner): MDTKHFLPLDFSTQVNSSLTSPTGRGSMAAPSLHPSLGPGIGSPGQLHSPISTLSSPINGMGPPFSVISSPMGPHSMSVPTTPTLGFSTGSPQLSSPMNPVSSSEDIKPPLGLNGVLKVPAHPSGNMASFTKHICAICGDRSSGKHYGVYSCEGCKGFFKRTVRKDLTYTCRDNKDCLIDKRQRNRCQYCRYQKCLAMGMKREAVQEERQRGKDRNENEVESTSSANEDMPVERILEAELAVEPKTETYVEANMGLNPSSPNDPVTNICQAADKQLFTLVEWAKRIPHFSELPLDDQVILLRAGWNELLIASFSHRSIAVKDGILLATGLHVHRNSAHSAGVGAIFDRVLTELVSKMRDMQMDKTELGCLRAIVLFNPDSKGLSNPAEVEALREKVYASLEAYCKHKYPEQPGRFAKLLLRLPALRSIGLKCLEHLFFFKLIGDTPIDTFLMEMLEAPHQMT
Experimental: (§1) See, e.g., Song, C. et al., Steroids, 2000, 65, 423-427.
(§2) Specifically, human embryonic kidney 293 cells were seeded into a 48-well culture plate at 10^5 cells per well in a Dulbecco's modified Eagle's medium (DMEM) supplemented with 10% fetal bovine serum. After incubation for 24 hours, the cells were transfected by the calcium phosphate coprecipitation method with 250 ng of a pGL3/UREluc reporter gene that consisted of three copies of AGGTCAagccAGGTCA fused to nucleotides −56 to +109 of the human c-fos promoter in front of the firefly luciferase gene in the plasmid basic pGL3 (Promega, Madison, Wis.), 40 ng pSG5/hRXRα, 40 ng pSG5/rUR or CMX/hliver X receptorα, 10 ng pSG5/hGrip1, 0.4 ng CMV/R-luc (transfection normalization reporter, Promega) and 250 ng carrier DNA per well. […]
(§3) After incubation for another 12 to 24 hours, the cells were washed with phosphate buffer saline and then refed with DMEM supplemented with 4% delipidated fetal bovine serum. […] After incubation for another 24 to 48 hours, the cells were harvested and the luciferase activity was measured with a commercial kit (Promega Dual luciferase II) on a Monolight luminometer (Becton Dickenson, Mountain View, Calif.).

[1] = molecular target: T2, liver X receptor beta (i.e., UR) (Rattus norvegicus, UniProt Q62755); test: gene transactivation (luciferase reporter) assay in human embryonic kidney 293 cells, liver X receptor beta (UR); format: cell-based; settings: 1 to 10 μM
T2 sequence (Q62755 1-446): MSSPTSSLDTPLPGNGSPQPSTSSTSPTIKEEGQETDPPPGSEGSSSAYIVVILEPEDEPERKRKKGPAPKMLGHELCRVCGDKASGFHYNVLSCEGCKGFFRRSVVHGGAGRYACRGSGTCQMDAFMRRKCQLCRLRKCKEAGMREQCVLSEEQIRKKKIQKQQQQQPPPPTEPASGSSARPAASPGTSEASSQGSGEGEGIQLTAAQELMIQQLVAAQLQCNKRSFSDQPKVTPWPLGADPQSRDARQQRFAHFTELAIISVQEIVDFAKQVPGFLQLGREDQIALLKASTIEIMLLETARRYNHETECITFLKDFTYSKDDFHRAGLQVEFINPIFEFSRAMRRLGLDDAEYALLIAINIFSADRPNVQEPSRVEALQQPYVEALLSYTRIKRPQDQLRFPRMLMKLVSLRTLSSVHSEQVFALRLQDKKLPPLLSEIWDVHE
T2 sequence (P19793 1-462 partner): T1 sequence (P19793 1-462 partner)
Experimental: as §1, §2, §3

In the case of `CON(C)C(=O)CC[C@@H](C)[C@H]1CC[C@H]2[C@@H]3C[C@H](O)[C@@H]4C[C@H](O)CC[C@]4(C)[C@H]3CC[C@]12C` [hypocholamide, N-methyl-N-methoxy-3α,6α-dihydroxy-5β-cholanoic acid-24-amide], the “liver X receptor alpha agonistic activity” value (liver X receptor alpha) is reported as “unexpectedly potent agonists” and the “liver X receptor beta (UR) agonistic activity” value [1] is reported as “unexpectedly potent agonists”.

For `CC(CCC(O)(C(F)(F)F)C(F)(F)F)C1CCC2C3CC(O)C4CC(O)CCC4(C)C3CCC12C` (stereo not drawn) [hypocholaride, 3α,6α,24-trihydroxy-5β-24,24-di(trifluoromethyl)-cholestane], the “liver X receptor alpha agonistic activity” value (liver X receptor alpha) was “unexpectedly potent agonists” and the “liver X receptor beta (UR) agonistic activity” value [1] was “unexpectedly potent agonists”.
